In ChEMBL document CHEMBL1144015, “Antiproliferative effects on human tumor cells and rat aortic smooth muscular cells of 2,3-heteroarylmaleimides and heterofused imides” (Bioorg Med Chem, 2008) one finds IC50, logP and Activity data, which are given here for 15 molecules.

Active and inactive are the calls of the source. No cut-off for these calls is given here. A value given as a limit tells only on which side of the number the result lay.

Series [1] is described as follows: Effect on cell proliferation of Sprague-Dawley rat smooth muscle cells after 72 hrs.
The subject of another series is NCI-H460. Nature of the series: Antiproliferative activity against human NCI-H460 cells after 72 hrs. The class given is functional, cell-based. The settings on record: NCI-H460, 72 h.
Series [2] can be described thus: Partition coefficient, log P of the compound. Type of series: physicochemical. The settings on record: octanol/water.
Series [3] in a line: Binding affinity to supercoiled pRYG DNA by DNA intercalating assay.

As usually defined, the IC50 is the point on the concentration scale where inhibition reaches its midpoint. The logP is the decadic logarithm of the partition coefficient of the neutral form, usually between octanol and water. `CN(C)CCN1C(=O)c2cccc3cc(N)cc(c23)C1=O` [AMONAFIDE]: the results for the IC50 (in series [1]; in the series with NCI-H460) were 0.48 µM and 7.8 µM, respectively. Besides, the logP in series [2] came to 1.6.

Consider `CCN(CC)CCN1C(=O)C(c2cccs2)=C(c2cccs2)C1=O`, for which the values for the IC50 (in series [1]; in the series on NCI-H460) were 3.9 µM and 8.9 µM, respectively. The logP in series [2] is 2.9. The outcome in series [3] was inactive.

Take `CCN(CC)CCN1C(=O)c2c(c3ccccc3c3ccccc23)C1=O`: the results for the IC50 (in series [1]; with NCI-H460) were 0.68 µM and 0.9 µM, respectively. The logP in series [2] worked out at 4.1.

Turning to `CCN(CC)CCN1C(=O)C(c2cccs2)=C(c2cccn2C)C1=O`, the IC50 turned out to be 12.1 µM in series [1] and 9 µM in the series with NCI-H460. The molecule further yielded a logP in series [2] of 1.7. In addition, in series [3], the result was inactive.

As for `CCN(CC)CCN1C(=O)c2c(c3sccc3c3ccoc23)C1=O`, the IC50 (in series [1]; with NCI-H460) was more than 30 µM throughout. The logP in series [2] stood at 3.

With `CCN(CC)CCN1C(=O)C(c2ccco2)=C(c2cccs2)C1=O`, the half-inhibitory concentration (IC50) is 2.1 µM in series [1] and 8.7 µM in the series with NCI-H460. Besides, the logP in series [2] was 2.1.

As to `CCN(CC)CCN1C(=O)c2c(c3sccc3c3ccccc23)C1=O`, the IC50 in series [1] came to 13.9 µM; with NCI-H460 it was 7.1 µM. In addition, the logP in series [2] came out at 3.9.

Turning to `CCN(CC)CCN1C(=O)c2c(c3c(ccn3C)c3ccoc23)C1=O`, the figures for the IC50 (in series [1]; with NCI-H460) were 5.3 µM and 8.6 µM, respectively. For the same molecule, the logP in series [2] is 1.7.

With `O=C1c2cccc3cccc(c23)C(=O)N1CCNCCCNCCN1C(=O)c2cccc3cccc(c23)C1=O`, the outcome in series [3] was Active.

On to `CCN(CC)CCN1C(=O)C(c2c[nH]c3ccccc23)=C(c2cccn2C)C1=O`, for which the IC50 in series [1] was found to be 3.6 µM; in the series on NCI-H460, 8.5 µM. Further, in series [2], the logP was found to be 2.9.

Consider `CCN(CC)CCN1C(=O)C(c2cc3ccccc3[nH]2)=C(c2cccs2)C1=O`, for which the IC50 in series [1] was found to be 5.3 µM; in the series with NCI-H460, 8.4 µM. Besides, the lipophilicity (logP) in series [2] was determined as 3.8.

Regarding `CCN(CC)CCN1C(=O)c2c(c3sccc3c3ccsc23)C1=O`, the values for the IC50 (in series [1]; in the series on NCI-H460) were 0.53 µM and 4.8 µM, respectively. The molecule further gave a logP in series [2] of 3.8. Also, in series [3], the outcome was inactive.

On to `CCN(CC)CCN1C(=O)C(c2ccco2)=C(c2cccn2C)C1=O`, for which, in the series on NCI-H460, the IC50 is more than 30 µM. Moreover, the logP in series [2] was 0.9.

In the case of `CCN(CC)CCN1C(=O)c2c(c3c(ccn3C)c3ccsc23)C1=O`, the results for the IC50 (in series [1]; in the series on NCI-H460) were 0.08 µM and 0.84 µM, respectively. The same molecule came in with a logP in series [2] of 2.5. Further, the outcome in series [3] was inactive.

`CCN(CC)CCN1C(=O)C(c2cccs2)=C(c2c[nH]c3ccccc23)C1=O`: the values for the concentration for half-maximal inhibition (IC50) (in series [1]; in the series on NCI-H460) were 1 µM and 1.9 µM, respectively. In addition, the logP in series [2] is 3.8.
